This is an account of results in patent US8802128B2, “Steroid-containing sustained release intraocular implants and related methods” (Allergan, Inc., priority 2006, dated 2014).

For series [1] the following is noted: in vivo; cited from earlier work.
A short description of series [2]: Relative water solubility of the steroids. The series is classed as physicochemical.

The structures appear in SMILES notation.

As to `CC(C)OC(=O)CCC/C=C\C[C@@H]1[C@@H](CC[C@@H](O)CCc2ccccc2)[C@H](O)C[C@@H]1O` [latanoprost], the “eyes with increase in brown pigment in the iris” value in series [1] is reported as 5-15 % of human eyes.
With `CC1(C)O[C@@H]2C[C@H]3[C@@H]4CCC5=CC(=O)C=C[C@]5(C)[C@@]4(F)[C@@H](O)C[C@]3(C)[C@]2(C(=O)CO)O1` [triamcinolone acetonide], in series [2], the “water solubility relative to beclomethasone dipropionate (times more soluble)” value is “about 150 times”.
